The values that follow are results of earlier work, collected in patent publication US20260324642A1, “COMPOSITION, PEST CONTROL PREPARATION, AND PEST CONTROL METHOD” (priority 2023, published 2026).

The conditions of the data set: known activity, background art.

As to `COc1ccc(C(=O)O[C@H]2CC[C@@]3(C)[C@@H]4CC[C@H]5[C@]6(O)C[C@H](O)[C@@]7(O)[C@@H](CN8C[C@@H](C)CC[C@H]8[C@@]7(C)O)[C@]6(O)C[C@@]53O[C@]24O)cc1OC` [Veratridine], the insecticidal activity result is recorded as “known to have insecticidal activity”. In the case of `C/C=C(/C)C(=O)O[C@H]1CC[C@@]2(C)[C@@H]3CC[C@H]4[C@]5(O)C[C@H](O)[C@@]6(O)[C@@H](CN7C[C@@H](C)CC[C@H]7[C@@]6(C)O)[C@]5(O)C[C@@]42O[C@]13O` [Cevadine], the insecticidal activity result is recorded as “known to have insecticidal activity”.
